According to US8546381B2, “Bridged heterocyclic compounds and methods of use” (Medivation Technologies, Inc., priority 2008, dated 2013):

Columns and labels:
[1] = target: T1, human recombinant adrenergic α1D receptor (Homo sapiens, UniProt P25100); test: Adrenergic α1D radioligand binding ([3H]Prozosin); conditions: 1 μM; for inhibition at 1 µM: read-out: Adrenergic α1D, inhibition of ligand binding (1 μM)
T1 construct: expressed in transfected cells; host or cells: HEK-293 cells
T1 sequence (P25100 1-572): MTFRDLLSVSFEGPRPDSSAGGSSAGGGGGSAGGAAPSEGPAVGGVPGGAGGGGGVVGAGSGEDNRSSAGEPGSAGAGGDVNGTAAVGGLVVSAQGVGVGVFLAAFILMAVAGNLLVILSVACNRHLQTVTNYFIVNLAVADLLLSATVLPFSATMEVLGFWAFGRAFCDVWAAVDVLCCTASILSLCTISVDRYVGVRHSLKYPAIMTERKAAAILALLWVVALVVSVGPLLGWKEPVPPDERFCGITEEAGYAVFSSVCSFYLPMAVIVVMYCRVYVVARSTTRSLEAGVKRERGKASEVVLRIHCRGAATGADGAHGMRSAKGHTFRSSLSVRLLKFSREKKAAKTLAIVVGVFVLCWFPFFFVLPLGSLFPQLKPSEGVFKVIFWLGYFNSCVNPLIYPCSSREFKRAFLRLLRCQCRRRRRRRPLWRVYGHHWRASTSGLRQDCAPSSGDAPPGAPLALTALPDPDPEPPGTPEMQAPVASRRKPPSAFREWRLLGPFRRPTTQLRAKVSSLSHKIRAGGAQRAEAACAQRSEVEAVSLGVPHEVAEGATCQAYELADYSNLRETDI
Experimental: To evaluate in radioligand binding assays the activity of compounds of the invention, human recombinant adrenergic α1D receptor expressed in human embryonic kidney (HEK-293) cells (Kenny, B. A. et al. Br. J. Pharmacol. 115(6):981, 1995) in a 50 mM Tris-HCl buffer, pH 7.4, was used. Compounds of invention were incubated with 0.6 nM [^3H]Prozosin for 60 minutes at 25° C. Non-specific binding was estimated in the presence of 10 μM phentolamine. Receptor proteins were filtered and washed, the filters were then counted to determine [^3H]Prozosin specifically bound. Compounds were screened at 1 μM or lower, using 1% DMSO as vehicle. Biochemical assay results are presented as the percent inhibition of specific binding in Table 3.

[2] = target: T2, human recombinant serotonin (5-Hydroxytryptamine) 5-HT7 receptor (Homo sapiens, UniProt P34969); test: Serotonin 5-HT7 radioligand binding ([3H]LSD); conditions: read-out: Serotonin 5-HT7, inhibition of ligand binding (1 μM)
T2 construct: expressed in transfected cells; host or cells: CHO cells
Experimental: To evaluate in radioligand binding assays the activity of compounds of the invention, human recombinant serotonin (5-Hydroxytryptamine) 5-HT7 receptor expressed in Chinese hamster ovary (CHO) cells (Roth, B. L. et al., J. Pharmacol. Exp. Ther. 268:1403, 1994; Shen, Y. et al., J. Biol. Chem. 268:18200, 1993) in a modified Tris-HCl buffer (50 mM Tris-HCl, pH 7.4, 10 mM MgCl2, 0.5 mM EDTA) was used. Compounds of invention were incubated with 5.5 nM [^3H] Lysergic acid diethylamide (LSD) for 2 hours at 25° C. Non-specific binding was estimated in the presence of 10 μM Serotonin (5-HT). Receptor proteins were filtered and washed, the filters were then counted to determine [^3H]LSD specifically bound. Compounds were screened at 1 μM or lower, using 1% DMSO as vehicle. Biochemical assay results are presented as the percent inhibition of specific binding in Table 4.

T2 sequence (P34969 whole entry): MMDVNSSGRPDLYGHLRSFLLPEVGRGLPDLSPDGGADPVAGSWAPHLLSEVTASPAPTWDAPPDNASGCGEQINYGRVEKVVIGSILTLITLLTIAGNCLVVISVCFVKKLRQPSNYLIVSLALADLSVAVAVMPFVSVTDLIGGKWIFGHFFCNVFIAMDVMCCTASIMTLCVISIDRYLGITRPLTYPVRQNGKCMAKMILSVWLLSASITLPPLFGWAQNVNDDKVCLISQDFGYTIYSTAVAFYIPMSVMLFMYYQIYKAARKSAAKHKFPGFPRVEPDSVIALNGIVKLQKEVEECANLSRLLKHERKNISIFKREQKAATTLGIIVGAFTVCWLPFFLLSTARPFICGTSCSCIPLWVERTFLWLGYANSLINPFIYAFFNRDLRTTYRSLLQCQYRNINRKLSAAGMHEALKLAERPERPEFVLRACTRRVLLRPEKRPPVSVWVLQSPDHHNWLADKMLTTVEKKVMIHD

| SMILES | inhibition at 1 µM [1] [%] | Adrenergic α1D, inhibition of ligand binding (1 μM) [1] [%] | inhibition at 1 µM [2] [%] |
| --- | --- | --- | --- |
| CN1C2CCC1c1c(n(CCC(=O)N3CCNC(=O)C3)c3ccc(Cl)cc13)C2 (stereo not shown) [Compound 3] | 6 |  |  |
| CC(=O)N1CCN(C(=O)CCn2c3c(c4cc(Cl)ccc42)C2CCC(C3)N2C)CC1 (stereo not shown) [Compound 8] | 8 |  |  |
| CN1C2CCC1c1c(n(CCC(=O)N3CCNCC3)c3ccc(Cl)cc13)C2 (stereo not shown) [Compound 9] | 9 |  |  |
| CN1C2CCC1c1c(n(CCC(=O)N3CC[S+]([O-])CC3)c3ccc(Cl)cc13)C2 (stereo not shown) [Compound 10] | 7 |  |  |
| CN1C2CCC1c1c(n(CCC(=O)N3CCS(=O)(=O)CC3)c3ccc(Cl)cc13)C2 (stereo not shown) [Compound 11] | -11 |  |  |
| CN1C2CCC1c1c(n(CCC(=O)N3CCSCC3)c3ccc(Cl)cc13)C2 (stereo not shown) [Compound 12] | 3 |  |  |
| Cc1ccc2c(c1)c1c(n2CCc2ccc(C)nc2)CC2CCC1N2C (stereo not shown) [Compound 32] | 53 |  |  |
| CN1C2CCC1c1c(n(CCc3ccc(C(F)(F)F)nc3)c3ccc(Cl)cc13)C2 (stereo not shown) [Compound 34] | 61 | 56.0 |  |
| CN1C2CCC1c1c(n(CCCc3ccc(C(F)(F)F)nc3)c3ccc(Cl)cc13)C2 (stereo not shown) [Compound 37] | 12 |  |  |
| Cc1ccc(CCCn2c3c(c4cc(Cl)ccc42)C2CCC(C3)N2C)cn1 (stereo not shown) [Compound 38] | 50 |  |  |
| CN1C2CCC1c1c(n(CCCc3ccc(Cl)cc3)c3ccc(Cl)cc13)C2 (stereo not shown) [Compound 39] | 11 |  |  |
| Cc1ccc(C(O)Cn2c3c(c4cc(Cl)ccc42)C2CCC(C3)N2C)cn1 (stereo not shown) [Compound 52] | 33 |  |  |
| Cc1ccc2c(c1)c1c(n2CC(C)(O)c2ccc(Cl)cc2)CC2CCC1N2C (stereo not shown) [Compound 54] | 25 |  |  |
| CCOC(=O)CCn1c2c(c3cc(Cl)ccc31)C1CCC(C2)N1C (stereo not shown) [Compound 70, ethyl 3-(2-chloro-11-methyl-5,6,7,8,9,10-hexahydro-7,10-iminocyclohept[b]indol-5-yl)propanoate] | 26 |  |  |
| Cc1ccc2c(c1)c1c(n2CCc2ccc(C(F)(F)F)nc2)CC2CCC1N2C (stereo not shown) [Compound 71] | 62 | 63.0 |  |
| CN1C2CCC1c1c(n(CCC(=O)O)c3ccc(Cl)cc13)C2 (stereo not shown) [Compound 72] | -9 |  |  |
| CN1C2CCC1c1c(n(CCC(N)=O)c3ccc(Cl)cc13)C2 (stereo not shown) [Compound 73] | 19 |  |  |
| CN1C2CCC1c1c(n(CCc3ccc(C(F)(F)F)nc3)c3cc(F)c(Cl)cc13)C2 (stereo not shown) [Compound 77] | 37 |  |  |
| Cc1ccc(CCn2c3c(c4cc(Cl)ccc42)C2CCC(C3)N2C)cn1 (stereo not shown) [Compound 79] | 72 |  |  |
| CN1C2CCC1c1c(n(CCc3cccnc3)c3ccc(Cl)cc13)C2 (stereo not shown) [Compound 80] | 54 |  |  |
| Cc1ccc2c(c1)c1c(n2CCc2cnc(C)nc2)CC2CCC1N2C (stereo not shown) [Compound 81] | 42 |  |  |
| Cc1ncc(CCn2c3c(c4cc(Cl)ccc42)C2CCC(C3)N2C)cn1 (stereo not shown) [Compound 82] | 40 |  |  |
| COc1ccc(CCn2c3c(c4cc(C)ccc42)C2CCC(C3)N2C)cc1 (stereo not shown) [Compound 83] | 80 |  |  |
| COc1ccc(CCn2c3c(c4cc(Cl)ccc42)C2CCC(C3)N2C)cc1 (stereo not shown) [Compound 84] | 19 |  |  |
| Cc1ccc2c(c1)c1c(n2CCCc2ccc(Cl)cc2)CC2CCC1N2C (stereo not shown) [Compound 85] | 43 |  |  |
| Cc1ccc2c(c1)c1c(n2CCc2cccnc2)CC2CCC1N2C (stereo not shown) [Compound 86] | 87 |  |  |
| CN1C2CCC1c1c(n(CCc3cncc(Cl)c3)c3ccc(Cl)cc13)C2 (stereo not shown) [Compound 87] | 70 |  |  |

| SMILES | inhibition at 1 µM [1] [%] | Adrenergic α1D, inhibition of ligand binding (1 μM) [1] [%] | inhibition at 1 µM [2] [%] |
| --- | --- | --- | --- |
| Cc1ccc2c(c1)c1c(n2CCc2cncc(Cl)c2)CC2CCC1N2C (stereo not shown) [Compound 88] | 73 |  |  |
| Cc1cncc(CCn2c3c(c4cc(Cl)ccc42)C2CCC(C3)N2C)c1 (stereo not shown) [Compound 89] | 44 |  |  |
| Cc1cncc(CCn2c3c(c4cc(C)ccc42)C2CCC(C3)N2C)c1 (stereo not shown) [Compound 90] | 40 |  |  |
| Cc1ccc2c(c1)c1c(n2CC(O)c2ccc(C)nc2)CC2CCC1N2C (stereo not shown) [Compound 91] | 24 |  |  |
| Cc1ccc(CCn2c3c(c4ccccc42)C2CCC(C3)N2C)cn1 (stereo not shown) [Compound 92] | 8 |  |  |
| Cc1ccc2c(c1)c1c(n2CC(=O)N2CCCCC2)CC2CCC1N2C (stereo not shown) [Compound 93] | -18 |  |  |
| CN1[C@@H]2CC[C@H]1c1c(n(CCc3ccc(F)cc3)c3ccc(F)cc13)C2 [Compound 94, (+)-(7S,10R)-2-Fluoro-5-(4-fluorophenethyl)-11-methyl-5,6,7,8,9,10-hexahydro-7,10-iminocyclohept[b]indole] | 77 |  |  |
| CN1[C@H]2CC[C@@H]1c1c(n(CCc3ccc(F)cc3)c3ccc(F)cc13)C2 [Compound 95, (−)-(7R,10S)-2-Fluoro-5-(4-fluorophenethyl)-11-methyl-5,6,7,8,9,10-hexahydro-7,10-iminocyclohept[b]indole] | 82 |  |  |
| CN1[C@@H]2CC[C@H]1c1c(n(CCc3ccc(C(F)(F)F)nc3)c3ccccc13)C2 [Compound 97] | 19 |  |  |
| CN1[C@@H]2CC[C@H]1c1c(n(CC(C)(O)c3ccc(F)cc3)c3ccccc13)C2 (stereo partly shown) [Compound 99] | 20 |  |  |
| CN1[C@@H]2CC[C@H]1c1c(n(CC(=O)N3CCCCC3)c3ccccc13)C2 [Compound 101] | 74 |  |  |
| Cc1ccc(CCn2c3c(c4ccccc42)[C@@H]2CC[C@H](C3)N2C)cn1 [Compound 102] | 1 |  |  |
| Cc1ccc2c(c1)c1c(n2CCC#N)CC2CCC1N2C (stereo not shown) [Compound 103] | 86 |  |  |
| CN1C2CCC1c1c(n(CCC#N)c3ccc(Cl)cc13)C2 (stereo not shown) [Compound 107] | 47 |  |  |
| CN1C2CCC1c1c(n(CC(=O)c3ccccc3)c3ccc(Cl)cc13)C2 (stereo not shown) [Compound 110] | 40 |  |  |
| CN1C2CCC1c1c(n(CC(=O)c3ccc(Cl)cc3)c3ccc(Cl)cc13)C2 (stereo not shown) [Compound 111] | 40 |  | 78 |
| Cc1ccc2c(c1)c1c(n2CCc2nc(-c3ccccc3)cs2)CC2CCC1N2C (stereo not shown) [Compound 114] | 68 |  |  |
| C/C(=C\n1c2c(c3cc(C)ccc31)C1CCC(C2)N1C)c1ccc(Cl)cc1 (stereo not shown) [Compound 116] | 40 |  | 92 |
| C/C(=C/n1c2c(c3ccccc31)[C@@H]1CC[C@H](C2)N1C)c1ccc(F)cc1 [Compound 121] | 80 |  |  |
| C/C(=C\n1c2c(c3cc(Cl)ccc31)C1CCC(C2)N1C)c1ccc(F)cc1 (stereo not shown) [Compound 123] | 79 |  | 97 |
| C/C(=C\n1c2c(c3cc(C)ccc31)C1CCC(C2)N1C)c1ccc(F)cc1 (stereo not shown) [Compound 124] | 67 |  | 91 |
| C/C(=C\n1c2c(c3cc(Cl)ccc31)C1CCC(C2)N1C)c1ccc(Cl)cc1 (stereo not shown) [Compound 125] | 54 |  | 95 |
| COc1ccc(/C(C)=C/n2c3c(c4cc(Cl)ccc42)C2CCC(C3)N2C)cc1F (stereo not shown) [Compound 136] | 61 |  | 79 |
| CN1C2CCC1c1c(n(C#Cc3ccc(F)cc3)c3ccc(Cl)cc13)C2 (stereo not shown) [Compound 138] | 60 |  | 91 |
| Cc1ccc(C#Cn2c3c(c4cc(Cl)ccc42)C2CCC(C3)N2C)cn1 (stereo not shown) [Compound 139] | 65 |  | 97 |
| Cc1ccc2c(c1)c1c(n2C#Cc2ccc(F)cc2)CC2CCC1N2C (stereo not shown) [Compound 141] | 20 |  | 48 |
